Data set [1] relates to M. bovis BCG. It counts as cell-based, Mycobacterium bovis BCG.
Data set [2] relates to Vero (African Green Monkey kidney epithelial cells). Description: Cytotoxicity against mammalian Vero cells. The following applies: IC50 Vero/MIC50 Mtb. It counts as cell-based.
For data set [3], the system named is M. bovis BCG. It counts as cell-based, Mycobacterium bovis BCG. This is another data set of the same source.
Data set [4] concerns nutrient-starved M. tuberculosis H37Rv. Kind of data set: Loebel model, nutrient-starved nonreplicating cultures. The following applies: 40× MIC90 (64 μM); 7 days. It counts as cell-based, Mycobacterium tuberculosis H37Rv.
Data set [5] has as its system M. bovis BCG cell membrane. It counts as cell-based, Mycobacterium bovis BCG. The following applies: 4× MIC90 (1.2 μM); for membrane depolarizing effect: after 8 h of exposure; for time at which red/green fluorescence ratio significantly decreased: coincided with onset of cell death.
The next data set relates to piniBAC promoter. It counts as cell-based, Mycobacterium bovis BCG. The following applies: 0.4–25 μM, 24 h.
The subject of data set [6] is reactive oxygen species (ROS) in M. bovis BCG. It counts as cell-based, Mycobacterium bovis BCG. The following applies: for dose-dependent ROS production: 0.25×–2× MIC90, 90 min; for ROS levels at higher dose: 2× MIC90.
The subject of a further data set is pfurA promoter. It counts as cell-based, Mycobacterium bovis BCG. The following applies: 0.5× to 2× MIC90, 24 h.
The test system of data set [7] is M. bovis BCG. It counts as cell-based, Mycobacterium bovis BCG. The following applies: 32 at its MIC90 + vitamin C 2.5 mM, 5 days.
Data set [8] has as its system M. bovis BCG. It counts as cell-based, Mycobacterium bovis BCG. The following applies: N-acetylcysteine, TEMPO, thiourea.
In data set [9] the target is NDH2 in IMVs of M. smegmatis mc^2155 (Mycolicibacterium smegmatis, UniProt A0QYD6). Description: NADH oxidation in inverted membrane vesicles. It counts as biochemical. Particulars: KCN, 20 mM.
Data set [10] deals with M. smegmatis mc^2155 IMVs. Kind of data set: Oxygen consumption and hydrogen peroxide production by IMVs. It counts as biochemical.
A further data set deals with M. smegmatis IMVs. Description: Transmembrane pH gradient dissipation in IMVs. It counts as biochemical. The following applies: 1 and 2 μM.
Data set [11] in a line: Metabolic stability in rat microsomes. It counts as in vitro ADME.
The nature of a further data set: mini-Ames test. It counts as cell-based.
A short description of data set [12]: In vivo pharmacokinetics in mice. The following applies: mouse; for bioavailability: po, 50 mg/kg.
Data set [13] has as its system M. bovis BCG cell membrane. Particulars: for membrane permeabilizing effect: 4× MIC90, after 8 h of exposure; for time at which permeabilization was observed: 4× MIC90, attributed to onset of cell death.
For data set [14], the system named is M. bovis BCG katG mutant strain. It counts as cell-based, Mycobacterium bovis BCG.

Results on nine molecules are retold here after publication PMC8595825 (Journal of medicinal chemistry, 2021).

Chain of NDH2 in IMVs of M. smegmatis mc^2155 (A0QYD6 1-457): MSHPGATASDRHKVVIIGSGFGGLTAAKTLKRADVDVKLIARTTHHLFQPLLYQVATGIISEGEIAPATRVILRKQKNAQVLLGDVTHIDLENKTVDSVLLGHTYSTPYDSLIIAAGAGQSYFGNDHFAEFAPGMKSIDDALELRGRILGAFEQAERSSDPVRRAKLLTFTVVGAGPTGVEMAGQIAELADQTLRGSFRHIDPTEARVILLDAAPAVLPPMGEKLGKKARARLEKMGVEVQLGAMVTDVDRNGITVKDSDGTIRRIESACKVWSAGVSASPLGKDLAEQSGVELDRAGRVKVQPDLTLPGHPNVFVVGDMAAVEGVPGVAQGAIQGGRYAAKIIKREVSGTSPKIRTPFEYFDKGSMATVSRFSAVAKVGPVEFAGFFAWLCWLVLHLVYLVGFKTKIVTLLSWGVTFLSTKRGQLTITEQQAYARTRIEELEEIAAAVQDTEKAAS

The molecule `CCCCCCCCn1c2c([n+](CCCC)c1C)C(=O)c1ccccc1C2=O.[Br-]` [compound 32] returned a pMIC90 in the data set on M. bovis BCG [1] of over 0.5. For the same molecule, in data set [2], the “SI (selectivity index)” value is over 25. For the same molecule, the time-kill outcome with M. bovis BCG [3] (8× MIC90, 28 days) was “CFUs were not detected from day 21 onward”. In data set [4], the “bactericidal effect, Loebel model” value is given as “substantially reduced CFUs to levels equivalent to or below the detection limit”. In [5], the membrane depolarizing effect result is given as “Neither compound induced depolarizing or permeabilizing effects” and the “time at which red/green fluorescence ratio significantly decreased” value came to 48 h. Further, the “piniBAC promoter activity (fluorescence)” value in the data set on piniBAC promoter was “no increase in fluorescence”. Also, the “dose-dependent ROS production” value in [6] is “duly observed”. The “pfurA activation (fluorescence)” value in the data set with pfurA promoter is reported as “induced dose-dependent increases in fluorescence”. The “Log10 CFU counts with vitamin C added” value with M. bovis BCG [7] is given as “nearly halved”. Also, the “effect of antioxidants on growth inhibitory MIC BCG” value in the data set on M. bovis BCG [8] is recorded as “did not diminish the growth inhibitory potency”. The “stimulation of NADH oxidation with cyanide” value in data set [9] is “retained the ability to stimulate NADH oxidation”. Also, the “oxygen consumption in IMVs energized by NADH compared to malate” value in data set [10] is ~ 1.8 fold. The “protonophore activity (pH gradient dissipation)” value in the data set with M. smegmatis IMVs is reported as “only moderate rates of pH gradient dissipation”. Further, the half-life in data set [11] lay within 0.333 to 0.383 h. Further, the “mutagenicity, mini-Ames test” value in the data set “mini-Ames test” was “not mutagenic”. In data set [12], this molecule registered a Vd of 27 to 35 L/kg, a clearance of 2.28 to 3.3 L/h/kg, a half-life of 7 to 10 h and a bioavailability of 1 to 2%. In [13], the membrane permeabilizing effect result was “Neither compound induced depolarizing or permeabilizing effects” and the “time at which permeabilization was observed” value is on record as 24 h.
`CCCCCC[n+]1c2c(n(CC(C)C)c1C)C(=O)c1ccccc1C2=O.[Br-]` [compound 34] had a pMIC90 in the data set on M. bovis BCG [1] of over 0.5.
In turn, `CCCCCCCC[n+]1c2c(n(CC(C)C)c1C)C(=O)c1ccccc1C2=O.[Br-]` [compound 35] gave a pMIC90 in the data set on M. bovis BCG [1] of over 0.5.
In the case of `CCCCCCCn1c2c([n+](CCCCC)c1C)C(=O)c1ccccc1C2=O.[Br-]` [compound 48], in the data set on M. bovis BCG [1], the pMIC90 was over 0.5. In addition, the “SI (selectivity index)” value in data set [2] is reported as over 25. In addition, the “bactericidal effect, Loebel model” value in data set [4] was “substantially reduced CFUs to levels equivalent to or below the detection limit”. Further, in data set [5], the membrane depolarizing effect entry was “Neither compound induced depolarizing or permeabilizing effects” and the “time at which red/green fluorescence ratio significantly decreased” value amounted to 24 h. In the data set on piniBAC promoter, the “piniBAC promoter activity (fluorescence)” value was “no increase in fluorescence”. For the same molecule, in [6], the “dose-dependent ROS production” value was “duly observed”. Moreover, in the data set with pfurA promoter, the “pfurA activation (fluorescence)” value is given as “induced dose-dependent increases in fluorescence”. In [13], the membrane permeabilizing effect entry is on record as “Neither compound induced depolarizing or permeabilizing effects” and the “time at which permeabilization was observed” value came out at 48 h.
Regarding `CCCCCCn1c2c([n+](CCCCCC)c1C)C(=O)c1ccccc1C2=O.[Br-]` [compound 50], the pMIC90 in the data set with M. bovis BCG [1] is over 0.5.
On to `CCCCn1c2c([n+](C3CCC4(CCCCC4)CC3)c1C)C(=O)c1ccccc1C2=O.[Br-]` [compound 61], for which the “piniBAC promoter activity (fluorescence)” value with piniBAC promoter was “no increase in fluorescence”. Also, the “dose-dependent ROS production” value in data set [6] was “duly observed”. Besides, in the data set on pfurA promoter, the “pfurA activation (fluorescence)” value is “induced dose-dependent increases in fluorescence”. Moreover, in data set [14], the “activity against katG mutant strain” value was “a shift to lower MICs was not evident”. This molecule also showed a half-life in [11] of 0.333 to 0.383 h. The “mutagenicity, mini-Ames test” value in “mini-Ames test” was “not mutagenic”. Also, in data set [12], the Vd lay in the range of 27 to 35 L/kg, the clearance was 2.28 to 3.3 L/h/kg, the half-life fell in the range of 7 to 10 h and the bioavailability was 1 to 2%.
For the molecule `CCCCCCn1c(C)nc2c1C(=O)c1ccccc1C2=O` [compound 72], the “ROS levels at higher dose” value in data set [6] is recorded as “increased ROS levels but not to the levels induced by the actives at comparable doses”. Further, the “pfurA activation (fluorescence)” value in the data set on pfurA promoter is on record as “less evident”.
The corresponding values for `CCCCCCCCn1c(C)nc2c1C(=O)c1ccccc1C2=O` [compound 73] are “increased ROS levels but not to the levels induced by the actives at comparable doses” and “less evident”.
Take `NNC(=O)c1ccncc1` [isoniazid, reference compound]: the “time-kill outcome, colony growth by Day 28” value with M. bovis BCG [3] (4× MIC90 (12.8 μM)) is “comparable to the drug-free cultures”. The “piniBAC promoter activity (fluorescence)” value with piniBAC promoter is listed as “duly increased piniBAC promoter activity”. Also, the “activity against katG mutant strain” value in data set [14] is “inactive against the mutant strain”.
